{"source": "patent US20130197073A1", "about": "“HYPOCHOLESTEROLEMIC, ANTI-INFLAMMATORY AND ANTIEPILEPTIC NEUROPROTECTIVE COMPOUND” (NEURON BIOPHARMA, S.A., priority 2010, published 2013)", "key": {"[1]": {"test_system": "human neuroblastoma SK-N-MC cells", "experiment": "Protection against neuronal death induced by oxidative stress (xanthine/xanthine oxidase), WST-1", "format": "cell-based", "details": "NST0060 at 10 μM; 10 μM xanthine/60 mU/mL xanthine oxidase, 22 hours; protection significant from 1 to 40 μM", "protocol": "The assay was performed on human neuroblastoma SK-N-MC cells in culture from the American Type Culture Collection (ATCC), in all cases strict rules of sterility were followed and the manipulation was performed in class II biological safety cabinets following European standard EN 12469. The cells were maintained in the following culture medium: Minimum Essential Medium Eagle (MEM) supplemented with 1 mM sodium pyruvate, 2 mM L-glutamine, 0.1 mM non-essential amino acids, 0.05 mg/ml gentamicin and 10% fetal bovine serum.\nThe inhibition caused by compound NST0060 with respect to cell death caused by treatment with xanthine/xanthine oxidase which generates oxidative damage (produces free radicals such as hydrogen peroxide, superoxide anion, hydroxyl radical), which triggers cell death, was analyzed. These cells, not exceeding 15 passages, were seeded on 96-well plates treated for adherent cells with a cell concentration of 5×10^4 cells/well; 3 wells of the plate were seeded for each assay condition. […]\nThe cells were incubated (at 37° C. and 5% CO2) with these treatments for 22 hours, after which time WST-1 reagent (Roche) was added. […] The formazan which is formed can be detected colorimetrically since it has an absorbance of 440 nm. The reading was taken in a plate reader at 440 nm 2 hours after adding the reagent."}, "[2]": {"test_system": "promoter of a gene that could be modulated by oxidative stress bound to the firefly luciferase reporter gene", "experiment": "Oxidative stress of the brain induced by kainate in luciferase reporter mice, in vivo bioluminescence", "details": "50 mg/kg i.p. at 24 and 0.5 hours before KA 25 mg/kg and daily; 1 to 4 dpi", "protocol": "All the animals included during the experimental process were 12-week old males from the FVB/N strain who were carriers of a gene construct with the promoter of a gene that could be modulated by oxidative stress bound to the firefly luciferase reporter gene. The experiments were carried out strictly complying with the standard entitled Guidance on the Operation of Animals (Scientific Procedures, Act. 1986). The animals were subjected to their respective quarantine period and were treated with maximum precaution to minimize possible contaminations during inoculations and handling.\nThe animals were intraperitoneally inoculated with 25 mg/kg of kainate (KA) dissolved in PBS. Seven mice were pretreated at 24 and 0.5 hours before inoculation with KA and subsequently on a daily basis up to 7 days post-inoculation by means of intraperitoneal injection with 0.25% methyl cellulose in PBS as a vehicle (vehicle+KA administration regimen), and another 7 mice were pretreated at 24 and 0.5 hours before inoculation with KA and subsequently on a daily basis up to 7 days post-inoculation by means of intraperitoneal injection with compound NST0060 at a dose of 50 mg/kg (NST0060+KA administration regimen). […] Oxidative stress in the brain was monitored by means of the in vivo bioluminescence technique with the IVIS Lumina system (Caliper LS). […]"}, "in vitro": {"experiment": "in vitro", "details": "PAMPA, pH 7.4", "source_text": "To that end, the BBB was mimicked in an in vitro system that allowed evaluating the compound without using cells, and where the so-called PAMPA (Parallel Artificial Membrane Permeation Assay) was used, using a sandwich system considering the crossing of compounds by means of passive diffusion.\nA mixture of marketed lipids derived from pig brain with a phospholipid composition very similar to that which forms the barrier and known as PBL (Porcine Polar Brain Lipid) was used to mimic the blood-brain barrier. This compound was stored at −20° C. dissolved in dodecane at 100 μg/ml in glass vials.\nTo that end, a 1/100 dilution of the compounds was performed, being the DMSO content in all cases 1%.\nFive microliters of PBL at 20 μg/ml prepared from the frozen stock at 100 μg/mL were added in a 96-well filter plate, with a PVDF membrane and a pore size of 45 μm (MAIPN4550, Millipore). After 2 minutes, 300 μl of the phosphate buffer used to dilute the compounds were added. […] After that time, 100 μl from the wells of the donor plates and acceptor plates were transferred to a special 96-well plate for UV reading. […] The percentage of barrier crossing as well as the effective permeability (Pe) were calculated from the spectrophotometric data. […]\n[Drug]acceptor=Absorbance of the acceptor well\n[Drug]equilibrium=Absorbance of the mean of the basal wells/2 […]"}}, "data": [{"smiles": "CCCC(CCC)C(=O)O[C@H]1C[C@@H](C)C=C2C=C[C@H](C)[C@H](CC[C@@H]3C[C@@H](O)CC(=O)O3)[C@H]21", "note": "[NST0060, 2-propylpentanoic acid (1S,3R,7S,8S,8aR)-1,2,3,7,8,8a-hexahydro-3,7-dimethyl-8-[2-[(2R,4R)-tetrahydro-4-hydroxy-6-oxo-2H-pyran-2-yl]ethyl]-1-naphthalenyl ester]", "values": [{"measurement": "maximum protection against cell death caused by XXO", "setting": "[1]", "value": 80, "unit": "%"}, {"measurement": "expression of gene associated with oxidative stress in the brain (photon emission)", "setting": "[2]", "value": "did not show a significant increase in the expression of this gene associated with oxidative stress"}, {"measurement": "Papp at 18 h, 100 μM", "setting": "in vitro", "value": "8.8 ± 1.2", "unit": "×10⁻⁶ cm/s"}]}]}
